Measurements as given in ChEMBL document CHEMBL1212747, “In vitro activity of thimerosal against ocular pathogenic fungi” (2010).
In brackets after ≈: the same amount, converted by molar mass.

What was measured:
Assay type in all cases: functional
Fusarium sp. = assay: Antifungal activity against Fusarium sp. clinical isolates after 48 hrs by broth microdilution method
Alternaria alternata = assay: Antifungal activity against Alternaria alternata clinical isolates after 48 hrs by broth microdilution method
Fusarium solani = assay: Antifungal activity against Fusarium solani species complex clinical isolates after 48 hrs by broth microdilution method
[1] = Antifungal activity against Fusarium lateritium clinical isolates after 48 hrs by broth microdilution method
Fusarium oxysporum = assay: Antifungal activity against Fusarium oxysporum clinical isolates after 48 hrs by broth microdilution method
Aspergillus ochraceus = assay: Antifungal activity against Aspergillus ochraceus clinical isolates after 48 hrs by broth microdilution method
Aspergillus flavus = assay: Antifungal activity against Aspergillus flavus species complex clinical isolates after 48 hrs by broth microdilution method
Aspergillus niger = assay: Antifungal activity against Aspergillus niger clinical isolates after 48 hrs by broth microdilution method
Aspergillus nidulans = assay: Antifungal activity against Aspergillus nidulans clinical isolates after 48 hrs by broth microdilution method
Aspergillus oryzae = assay: Antifungal activity against Aspergillus oryzae species complex clinical isolates after 48 hrs by broth microdilution method
Aspergillus sp. = assay: Antifungal activity against Aspergillus sp. clinical isolates after 48 hrs by broth microdilution method
Fusarium verticillioides = assay: Antifungal activity against Fusarium moniliforme species complex clinical isolates after 48 hrs by broth microdilution method
Fusarium avenaceum = assay: Antifungal activity against Fusarium avenaceum species complex clinical isolates after 48 hrs by broth microdilution method
[2] = Antifungal activity against Fusarium poae clinical isolates after 48 hrs by broth microdilution method
Aspergillus wentii = assay: Antifungal activity against Aspergillus wentii clinical isolates after 48 hrs by broth microdilution method
Aspergillus fumigatus = assay: Antifungal activity against Aspergillus fumigatus species complex clinical isolates after 48 hrs by broth microdilution method
Aspergillus versicolor = assay: Antifungal activity against Aspergillus versicolor species complex clinical isolates after 48 hrs by broth microdilution method
Aspergillus candidus = assay: Antifungal activity against Aspergillus candidus clinical isolates after 48 hrs by broth microdilution method
[3] = Fusarium sp., 48 h, read-out: MIC90

CCC(C)n1ncn(-c2ccc(N3CCN(c4ccc(OCC5COC(Cn6cncn6)(c6ccc(Cl)cc6Cl)O5)cc4)CC3)cc2)c1=O (stereo not given) [ITRACONAZOLE]
MIC90 (Fusarium sp.; [3]): > 16 µg/mL

Nc1nc(=O)[nH]cc1F [FLUCYTOSINE]
MIC90 (Fusarium sp.; [3]): > 64 µg/mL

CC[C@@H]([C@H](C)O)n1ncn(-c2ccc(N3CCN(c4ccc(OC[C@@H]5CO[C@@](Cn6cncn6)(c6ccc(F)cc6F)C5)cc4)CC3)cc2)c1=O [POSACONAZOLE]
MIC90 (Fusarium sp.; [3]): > 8 µg/mL

C[C@@H](c1ncncc1F)[C@](O)(Cn1cncn1)c1ccc(F)cc1F [VORICONAZOLE]
MIC90 (Fusarium sp.; [3]): 2 µg/mL (≈ 5.73 µM)

C[C@@H]1[C@H](O)[C@@H](C)/C=C/C=C/C=C/C=C/C=C/C=C/C=C/[C@H](O[C@@H]2O[C@H](C)[C@@H](O)[C@H](N)[C@@H]2O)C[C@@H]2O[C@](O)(C[C@@H](O)C[C@@H](O)[C@H](O)CC[C@@H](O)C[C@@H](O)CC(=O)O[C@H]1C)C[C@H](O)[C@H]2C(=O)O [AMPHOTERICIN B]
MIC (Alternaria alternata): 0.125 µg/mL (≈ 0.135 µM) | MIC50 (Alternaria alternata): 0.125 µg/mL (≈ 0.135 µM) | MIC90 (Alternaria alternata): 0.125 µg/mL (≈ 0.135 µM) | MIC (Fusarium solani): 1 µg/mL (≈ 1.08 µM) | MIC50 (Fusarium solani): 1 µg/mL (≈ 1.08 µM) | MIC90 (Fusarium solani): 2 µg/mL (≈ 2.16 µM) | MIC50 [1]: 1 µg/mL (≈ 1.08 µM) | MIC90 [1]: 2 µg/mL (≈ 2.16 µM) | MIC (Fusarium oxysporum): 1 µg/mL (≈ 1.08 µM) | MIC50 (Fusarium oxysporum): 1 µg/mL (≈ 1.08 µM) | MIC90 (Fusarium oxysporum): 2 µg/mL (≈ 2.16 µM) | MIC (Aspergillus ochraceus): 1 µg/mL (≈ 1.08 µM) | MIC50 (Aspergillus ochraceus): 1 µg/mL (≈ 1.08 µM) | MIC90 (Aspergillus ochraceus): 2 µg/mL (≈ 2.16 µM) | MIC (Aspergillus flavus): 2 µg/mL (≈ 2.16 µM) | MIC50 (Aspergillus flavus): 2 µg/mL (≈ 2.16 µM) | MIC90 (Aspergillus flavus): 2 µg/mL (≈ 2.16 µM) | MIC (Aspergillus niger): 1 µg/mL (≈ 1.08 µM) | MIC50 (Aspergillus niger): 1 µg/mL (≈ 1.08 µM) | MIC90 (Aspergillus niger): 2 µg/mL (≈ 2.16 µM) | MIC90 (Fusarium sp.): 2 µg/mL (≈ 2.16 µM) | MIC (Fusarium sp.; Fusarium sp., 48 h): 1 µg/mL (≈ 1.08 µM) | MIC50 (Fusarium sp.; Fusarium sp., 48 h): 1 µg/mL (≈ 1.08 µM) | MIC90 (Fusarium sp.; [3]): 2 µg/mL (≈ 2.16 µM) | MIC (Aspergillus nidulans): 1 µg/mL (≈ 1.08 µM) | MIC50 (Aspergillus nidulans): 1 µg/mL (≈ 1.08 µM) | MIC90 (Aspergillus nidulans): 2 µg/mL (≈ 2.16 µM) | MIC (Aspergillus oryzae): 1 µg/mL (≈ 1.08 µM) | MIC50 (Aspergillus oryzae): 1 µg/mL (≈ 1.08 µM) | MIC90 (Aspergillus oryzae): 2 µg/mL (≈ 2.16 µM) | MIC (Aspergillus sp.): 1 µg/mL (≈ 1.08 µM) | MIC50 (Aspergillus sp.): 1 µg/mL (≈ 1.08 µM) | MIC90 (Aspergillus sp.): 2 µg/mL (≈ 2.16 µM) | MIC (Fusarium verticillioides): 2 µg/mL (≈ 2.16 µM) | MIC50 (Fusarium verticillioides): 2 µg/mL (≈ 2.16 µM) | MIC90 (Fusarium verticillioides): 2 µg/mL (≈ 2.16 µM) | MIC (Fusarium avenaceum): 2 µg/mL (≈ 2.16 µM) | MIC50 (Fusarium avenaceum): 2 µg/mL (≈ 2.16 µM) | MIC90 (Fusarium avenaceum): 4 µg/mL (≈ 4.33 µM) | MIC50 [2]: 1 µg/mL (≈ 1.08 µM) | MIC90 [2]: 2 µg/mL (≈ 2.16 µM) | MIC (Aspergillus wentii): 1 µg/mL (≈ 1.08 µM) | MIC50 (Aspergillus wentii): 1 µg/mL (≈ 1.08 µM) | MIC90 (Aspergillus wentii): 2 µg/mL (≈ 2.16 µM) | MIC (Aspergillus fumigatus): 1 µg/mL (≈ 1.08 µM) | MIC50 (Aspergillus fumigatus): 1 µg/mL (≈ 1.08 µM) | MIC90 (Aspergillus fumigatus): 2 µg/mL (≈ 2.16 µM) | MIC (Aspergillus versicolor): 1 µg/mL (≈ 1.08 µM) | MIC50 (Aspergillus versicolor): 1 µg/mL (≈ 1.08 µM) | MIC90 (Aspergillus versicolor): 2 µg/mL (≈ 2.16 µM) | MIC (Aspergillus candidus): 1 µg/mL (≈ 1.08 µM) | MIC50 (Aspergillus candidus): 1 µg/mL (≈ 1.08 µM) | MIC90 (Aspergillus candidus): 2 µg/mL (≈ 2.16 µM)

CC[C@H](C)C[C@H](C)CCCCCCCCC(=O)N[C@H]1C[C@@H](O)[C@@H](NCCN)NC(=O)[C@@H]2[C@@H](O)CCN2C(=O)[C@H]([C@H](O)CCN)NC(=O)[C@H]([C@H](O)[C@@H](O)c2ccc(O)cc2)NC(=O)[C@@H]2C[C@@H](O)CN2C(=O)[C@H]([C@@H](C)O)NC1=O [CASPOFUNGIN]
MIC90 (Fusarium sp.; [3]): > 16 µg/mL

CC(=O)N1CCN(c2ccc(OCC3COC(Cn4ccnc4)(c4ccc(Cl)cc4Cl)O3)cc2)CC1 (stereo not given) [KETOCONAZOLE]
MIC90 (Fusarium sp.; [3]): > 16 µg/mL

OC(Cn1cncn1)(Cn1cncn1)c1ccc(F)cc1F [FLUCONAZOLE]
MIC90 (Fusarium sp.; [3]): > 256 µg/mL

C[C@@H]1C/C=C/C=C/C=C/C=C/[C@H](O[C@@H]2O[C@H](C)[C@@H](O)[C@H](N)[C@@H]2O)C[C@@H]2O[C@](O)(C[C@@H](O)C[C@H]3O[C@@H]3/C=C/C(=O)O1)C[C@H](O)[C@H]2C(=O)O [NATAMYCIN]
MIC (Alternaria alternata): 4 µg/mL (≈ 6.01 µM) | MIC50 (Alternaria alternata): 4 µg/mL (≈ 6.01 µM) | MIC90 (Alternaria alternata): 4 µg/mL (≈ 6.01 µM) | MIC (Fusarium solani): 4 µg/mL (≈ 6.01 µM) | MIC50 (Fusarium solani): 4 µg/mL (≈ 6.01 µM) | MIC90 (Fusarium solani): 8 µg/mL (≈ 12 µM) | MIC50 [1]: 4 µg/mL (≈ 6.01 µM) | MIC90 [1]: 8 µg/mL (≈ 12 µM) | MIC (Fusarium oxysporum): 4 µg/mL (≈ 6.01 µM) | MIC50 (Fusarium oxysporum): 4 µg/mL (≈ 6.01 µM) | MIC90 (Fusarium oxysporum): 8 µg/mL (≈ 12 µM) | MIC (Aspergillus ochraceus): 4 µg/mL (≈ 6.01 µM) | MIC50 (Aspergillus ochraceus): 4 µg/mL (≈ 6.01 µM) | MIC90 (Aspergillus ochraceus): 32 µg/mL (≈ 48.1 µM) | MIC (Aspergillus flavus): 32 µg/mL (≈ 48.1 µM) | MIC50 (Aspergillus flavus): 32 µg/mL (≈ 48.1 µM) | MIC90 (Aspergillus flavus): 32 µg/mL (≈ 48.1 µM) | MIC (Aspergillus niger): 4 µg/mL (≈ 6.01 µM) | MIC50 (Aspergillus niger): 4 µg/mL (≈ 6.01 µM) | MIC90 (Aspergillus niger): 32 µg/mL (≈ 48.1 µM) | MIC90 (Fusarium sp.): 16 µg/mL (≈ 24 µM) | MIC (Fusarium sp.; Fusarium sp., 48 h): 4 µg/mL (≈ 6.01 µM) | MIC50 (Fusarium sp.; Fusarium sp., 48 h): 4 µg/mL (≈ 6.01 µM) | MIC90 (Fusarium sp.; [3]): 8 µg/mL (≈ 12 µM) | MIC (Aspergillus nidulans): 4 µg/mL (≈ 6.01 µM) | MIC50 (Aspergillus nidulans): 4 µg/mL (≈ 6.01 µM) | MIC90 (Aspergillus nidulans): 32 µg/mL (≈ 48.1 µM) | MIC (Aspergillus oryzae): 32 µg/mL (≈ 48.1 µM) | MIC50 (Aspergillus oryzae): 32 µg/mL (≈ 48.1 µM) | MIC90 (Aspergillus oryzae): 32 µg/mL (≈ 48.1 µM) | MIC (Aspergillus sp.): 32 µg/mL (≈ 48.1 µM) | MIC50 (Aspergillus sp.): 32 µg/mL (≈ 48.1 µM) | MIC90 (Aspergillus sp.): 32 µg/mL (≈ 48.1 µM) | MIC (Fusarium verticillioides): 4 µg/mL (≈ 6.01 µM) | MIC50 (Fusarium verticillioides): 4 µg/mL (≈ 6.01 µM) | MIC90 (Fusarium verticillioides): 8 µg/mL (≈ 12 µM) | MIC (Fusarium avenaceum): 8 µg/mL (≈ 12 µM) | MIC50 (Fusarium avenaceum): 8 µg/mL (≈ 12 µM) | MIC90 (Fusarium avenaceum): 8 µg/mL (≈ 12 µM) | MIC50 [2]: 4 µg/mL (≈ 6.01 µM) | MIC90 [2]: 8 µg/mL (≈ 12 µM) | MIC (Aspergillus wentii): 4 µg/mL (≈ 6.01 µM) | MIC50 (Aspergillus wentii): 4 µg/mL (≈ 6.01 µM) | MIC90 (Aspergillus wentii): 32 µg/mL (≈ 48.1 µM) | MIC (Aspergillus fumigatus): 4 µg/mL (≈ 6.01 µM) | MIC50 (Aspergillus fumigatus): 4 µg/mL (≈ 6.01 µM) | MIC90 (Aspergillus fumigatus): 4 µg/mL (≈ 6.01 µM) | MIC (Aspergillus versicolor): 8 µg/mL (≈ 12 µM) | MIC50 (Aspergillus versicolor): 8 µg/mL (≈ 12 µM) | MIC90 (Aspergillus versicolor): 32 µg/mL (≈ 48.1 µM) | MIC (Aspergillus candidus): 4 µg/mL (≈ 6.01 µM) | MIC50 (Aspergillus candidus): 4 µg/mL (≈ 6.01 µM) | MIC90 (Aspergillus candidus): 32 µg/mL (≈ 48.1 µM)

CN(C/C=C/C#CC(C)(C)C)Cc1cccc2ccccc12 [TERBINAFINE]
MIC90 (Fusarium sp.; [3]): 8 µg/mL (≈ 27.5 µM)

THIMEROSAL
MIC50 (Alternaria alternata): 0.0156 µg/mL | MIC90 (Alternaria alternata): 0.0313 µg/mL | MIC50 (Fusarium solani): 0.0156 µg/mL | MIC90 (Fusarium solani): 0.0313 µg/mL | MIC50 [1]: 0.0156 µg/mL | MIC90 [1]: 0.0313 µg/mL | MIC50 (Fusarium oxysporum): 0.0156 µg/mL | MIC90 (Fusarium oxysporum): 0.0313 µg/mL | MIC50 (Aspergillus ochraceus): 0.0156 µg/mL | MIC90 (Aspergillus ochraceus): 0.0313 µg/mL | MIC50 (Aspergillus flavus): 0.0625 µg/mL | MIC90 (Aspergillus flavus): 0.0625 µg/mL | MIC50 (Aspergillus niger): 0.0156 µg/mL | MIC90 (Aspergillus niger): 0.0313 µg/mL | MIC50 (Fusarium sp.): 0.0156 µg/mL | MIC90 (Fusarium sp.): 0.0313 µg/mL | MIC50 (Aspergillus nidulans): 0.0156 µg/mL | MIC90 (Aspergillus nidulans): 0.0313 µg/mL | MIC50 (Aspergillus oryzae): 0.0625 µg/mL | MIC90 (Aspergillus oryzae): 0.0625 µg/mL | MIC50 (Aspergillus sp.): 0.0625 µg/mL | MIC90 (Aspergillus sp.): 0.0625 µg/mL | MIC50 (Fusarium verticillioides): 0.0156 µg/mL | MIC90 (Fusarium verticillioides): 0.0313 µg/mL | MIC50 (Fusarium avenaceum): 0.0156 µg/mL | MIC90 (Fusarium avenaceum): 0.0313 µg/mL | MIC50 [2]: 0.0156 µg/mL | MIC90 [2]: 0.0313 µg/mL | MIC50 (Aspergillus wentii): 0.0156 µg/mL | MIC90 (Aspergillus wentii): 0.0313 µg/mL | MIC50 (Aspergillus fumigatus): 0.0313 µg/mL | MIC90 (Aspergillus fumigatus): 0.0625 µg/mL | MIC50 (Aspergillus versicolor): 0.0156 µg/mL | MIC90 (Aspergillus versicolor): 0.0625 µg/mL | MIC50 (Aspergillus candidus): 0.0156 µg/mL | MIC90 (Aspergillus candidus): 0.0313 µg/mL
